# In US10336746B1, “RAD51 inhibitors” (Cyteir Therapeutics, Inc., priority 2017, dated 2019):
# How the values were obtained:
# [1] = system: WI-38 cells (AID negative); assay: Primary screening cell killing assay repeated in WI-38 cells (AID negative); type: cell-based; conditions: Homo sapiens, 168 h, cell death on Day 7, Cell-Titer Glo
# Description: (§1) Primary screening was a phenotypic screen that utilized the synthetic lethal interaction between AID and RAD51 to identify compounds that were both potent and on target. AID expressing cells are dependent upon RAD51 for survival; inhibiting RAD51 in AID positive cells results in a cytotoxic effect.
# Percent cell death and EC50 values were calculated by comparing the cell viability of the compound treated wells to the non-treated wells. Normalized RLU values were obtained by subtracting the media well values from each of the wells in the same column, and then dividing that value by the DMSO treated cells values. The percent kill was then calculated by subtracting the normalized RLU value from 1 and multiplying by 100. The average normalized percent kill value and standard error of the mean was then calculated. The kill values were then inputted into Prism with the corresponding standard errors. In Prism a non-linear regression line was plotted with the data points using a semi-log scale, and the EC50 value was calculated.
# [2] = system: Daudi cell line (AID positive); assay: Primary screening cell killing assay, Daudi cell line (AID positive); type: cell-based; conditions: Homo sapiens, 168 h, cell death on Day 7, Cell-Titer Glo
# Description: as §1
# The first step was to set up a cell killing assay in the Daudi cell line (AID positive). A 96 well u-bottom plate was prepared by writing the experiment number, plate number, date and initials in the top right corner of the plate lid. With a sterile 300 ml reservoir, and 25 ml serological pipette, evaporation buffer media was pipetted into reservoir in 25 ml increments. Using the liquid handler, 150 ul of evaporation buffer media was pipetted from reservoir into rows A and H, and Columns 1 and 12 of the 96 well u-bottom plate. Cell cultures were counted to obtain the density of cells per ml, and the culture viability. The cell density information was used to obtain 1,000,000 cells from culture using a 5 mL serological pipette into an epi tube. The cell density information from the culture was used to calculate the number of cells and volume of media needed for the assay to seed 1250 cells in 130 ul of media per available culture well in the 96 well u-bottom plate. Rows B through F were used for cells (50 wells in total), with row G left for an empty media control. The calculation was overestimated by 10 mL to account for the dead volume in the 300 ml reservoir. Once the media volume was calculated, the appropriate volume of media was pipetted in 25 mL increments into the 250 mL bottle using a 25 mL serological pipette. The 250 ml bottle was capped tightly, and placed into a 37° C. water bath for 2 minutes. While the culture media was warming, 10 mL of fresh media was pipetted from the 500 mL culture media bottle into a sterile 25 mL reservoir. Using the Eppendorf multichannel pipette, 130 ul of media was pipetted from the 25 mL reservoir into row G of the 96 well u-bottom plate. Once the 250 mL bottle of media was warmed, the volume of culture needed was pipetted into the bottle, and mixed gently with a 25 mL serological pipette as to not create bubbles, and then the contents of the bottle were pipetted into a new 300 mL reservoir. Using the liquid handler, 130 ul of culture was pipetted from the 300 mL reservoir into rows B through F of the 96 well u-bottom plate. Once the culture was added, the plate was placed into a 37° C. incubator until the compound master plate was prepared for use.
# Two 96 well u-bottom plates were prepared by writing the master plate name in the upper right corner of the plate lid. Labeling one DMSO master and the other Media Master. The compounds of interest were obtained from the laboratory freezer, and placed into a 25 well storage box with a lid, and set the box aside. The compounds were vortexed after thawing but before use. Using an automatic multichannel pipette, 20 ul of 100% DMSO was pipetted into wells B3-B11 through G3-G11 of the DMSO master plate. For each compound on the master plate, 50 ul of the compound were pipetted in the appropriate well of row 2 (reference plate map to determine appropriate well). A serial dilution was prepared beginning by aspirating 20 ul from row 2 and mixing with row 3, repeating until row 11 was reached. Using the liquid handler, 194 ul of Daudi media was dispensed into wells B2-B11 through G2-G11 of the Media master plate. Using the liquid handler, 6 ul from the DMSO master plate was aspirated and dispensed into the media master plate, mixing 100 ul twice.
# Compounds from master plate were then added to the culture plate. The culture plates were removed from the incubator, and set inside the biosafety cabinet. Using a liquid handler, 20 ul from wells B2 to B11 through G2 to G11 of master plate were aspirated, and dispensed into wells B2 to B11 through G2 to G11 of culture plate. This set was continued with each culture plate. […]
SMILES,EC50 [1],EC50 [2]
"CC(C)OC(=O)NC12CCC(c3ncc(-c4ccc(NC(=O)NCc5ccccc5)cc4S(=O)(=O)NC(C)(C)C)s3)(CC1)CC2 [Ex. 18, isopropyl (4-(5-(4-(3-benzylureido)-2-(N-(tert-butyl)sulfamoyl)phenyl)thiazol-2-yl)bicyclo[2.2.2]octan-1-yl)carbamate]",> 1000 nM,≤ 100 nM
"CC(C)OC(=O)NC12CCC(c3ncc(-c4ccc(NC(=O)NCc5ccccn5)cc4S(=O)(=O)NC(C)(C)C)s3)(CC1)CC2 [Ex. 19, isopropyl (4-(5-(2-(N-(tert-butyl)sulfamoyl)-4-(3-(pyridin-2-ylmethyl)ureido)phenyl)thiazol-2-yl)bicyclo[2.2.2]octan-1-yl)carbamate]",> 1000 nM,≤ 100 nM
CC(C)OC(=O)N[C@H]1CC[C@H](c2ncc(-c3ccc(NC(=O)N[C@H](C)c4ccccc4)cc3S(=O)(=O)NC(C)(C)C)s2)CC1 [Ex. 24],> 1000 nM,≤ 100 nM
"CC(C)OC(=O)N[C@H]1CC[C@H](c2ncc(-c3ccc(NC(=O)N[C@@H](C)c4ccccc4)cc3S(=O)(=O)NC(C)(C)C)s2)CC1 [Ex. 26, isopropyl ((1S,4r)-4-(5-(2-(N-(tert-butyl)sulfamoyl)-4-(3-((S)-1-phenylethyl)ureido)phenyl)thiazol-2-yl)cyclohexyl)carbamate]",> 1000 nM,≤ 100 nM
"CC(C)OC(=O)N[C@H]1CC[C@H](c2ncc(-c3ccc(NC(=O)N[C@@H](C)c4ccccn4)cc3S(=O)(=O)NC(C)(C)C)s2)CC1 [Ex. 32, isopropyl ((1S,4r)-4-(5-(2-(N-(tert-butyl)sulfamoyl)-4-(3-((S)-1-(pyridin-2-yl)ethyl)ureido)phenyl)thiazol-2-yl)cyclohexyl)carbamate]",> 1000 nM,≤ 100 nM
"CC(C)OC(=O)NC1CCC(c2ncc(-c3ccc(NC(=O)OCc4ccccc4)cc3S(=O)(=O)NC(C)(C)C)s2)CC1 (stereo not shown) [Ex. 39, benzyl (3-(N-(tert-butyl)sulfamoyl)-4-(2-((1r,4r)-4-((isopropoxycarbonyl)amino)cyclohexyl)thiazol-5-yl)phenyl)carbamate]",> 1000 nM,≤ 100 nM
"CC(C)OC(=O)NC1CCC(c2ncc(-c3ccc(NC(=O)OCc4ccccc4F)cc3S(=O)(=O)NC(C)(C)C)s2)CC1 (stereo not shown) [Ex. 40, 2-fluorobenzyl (3-(N-(tert-butyl)sulfamoyl)-4-(2-((1r,4r)-4-((isopropoxycarbonyl)amino)cyclohexyl)thiazol-5-yl)phenyl)carbamate]",> 1000 nM,≤ 100 nM
"CC(C)OC(=O)NC1CCC(c2ncc(-c3ccc(NC(=O)O[C@@H](C)c4ccccc4)cc3S(=O)(=O)NC(C)(C)C)s2)CC1 (stereo partly drawn) [Ex. 41, (S)-1-phenylethyl (3-(N-(tert-butyl)sulfamoyl)-4-(2-((1r,4S)-4-((isopropoxycarbonyl)amino)cyclohexyl)thiazol-5-yl)phenyl)carbamate]",> 1000 nM,≤ 100 nM
"CC(C)OC(=O)NC1CCC(c2ncc(-c3ccc(NC(=O)OCc4ccccn4)cc3S(=O)(=O)NC(C)(C)C)s2)CC1 (stereo not shown) [Ex. 42, pyridin-2-ylmethyl (3-(N-(tert-butyl)sulfamoyl)-4-(2-((1r,4r)-4-((isopropoxycarbonyl)amino)cyclohexyl)thiazol-5-yl)phenyl)carbamate]",> 1000 nM,≤ 100 nM
"CC(C)OC(=O)NC1CCC(c2ncc(-c3ccc(NC(=O)O[C@H](C)c4ccccc4)cc3S(=O)(=O)NC(C)(C)C)s2)CC1 (stereo partly drawn) [Ex. 43, (R)-1-phenylethyl (3-(N-(tert-butyl)sulfamoyl)-4-(2-((1r,4R)-4-((isopropoxycarbonyl)amino)cyclohexyl)thiazol-5-yl)phenyl)carbamate]",> 1000 nM,100 to 1000 nM
"CC(C)OC(=O)Nc1ccc(-c2cnc(N3CC(NC(=O)OC(C)C)C3)s2)c(S(=O)(=O)NC(C)(C)C)c1 [Ex. 46, isopropyl N-[3-(tert-butylsulfamoyl)-4-[2-[3-(isopropoxycarbonylamino)azetidin-1-yl]thiazol-5-yl]phenyl]carbamate]",> 1000 nM,> 1000 nM
"CC(C)(C)NS(=O)(=O)c1cc(NC(=O)OC2COC2)ccc1-c1cnc([C@H]2CC[C@H](NC(=O)OC3COC3)CC2)s1 [Ex. 49, trans-oxetan-3-yl N-[3-(tert-butylsulfamoyl)-4-[2-[4-(oxetan-3-yloxycarbonylamino)cyclohexyl]thiazol-5-yl]phenyl]carbamate]",> 1000 nM,100 to 1000 nM
"C[C@@H](NC(=O)Nc1ccc(-c2cnc(C3CCC(NC(=O)OC4COC4)CC3)s2)c(S(=O)(=O)NC(C)(C)C)c1)c1ccccc1F (stereo partly drawn) [Ex. 54, oxetan-3-yl ((1R,4r)-4-(5-(2-(N-(tert-butyl)sulfamoyl)-4-(3-((R)-1-(2-fluorophenyl)ethyl)ureido)phenyl)thiazol-2-yl)cyclohexyl)carbamate]",> 1000 nM,≤ 100 nM
"CC(C)NC(=O)OC12CCC(c3ncc(-c4ccc(NC(=O)NCc5ccccc5)cc4S(=O)(=O)NC(C)(C)C)s3)(CC1)CC2 [Ex. 61, [1-[5-[4-(benzylcarbamoylamino)-2-(tert-butylsulfamoyl)phenyl]thiazol-2-yl]-4-bicyclo[2.2.2]octanyl]N-isopropylcarbamate]",> 1000 nM,> 1000 nM
"CC(C)NC(=O)OC12CCC(c3ncc(-c4ccc(NC(=O)NCc5ccccn5)cc4S(=O)(=O)NC(C)(C)C)s3)(CC1)CC2 [Ex. 62, 4-(5-(2-(N-(tert-butyl)sulfamoyl)-4-(3-(pyridin-2-ylmethyl)ureido)phenyl)thiazol-2-yl)bicyclo[2.2.2]octan-1-yl isopropylcarbamate]",> 1000 nM,> 1000 nM
"CC(C)OC(=O)Nc1ccc(-c2cnc(C3CC(NC(=O)OC(C)C)C3)s2)c(S(=O)(=O)NC(C)(C)C)c1 (stereo not shown) [Ex. 65, isopropyl N-[3-(tert-butylsulfamoyl)-4-[2-[3-(isopropoxycarbonylamino)cyclobutyl]thiazol-5-yl]phenyl]carbamate]",> 1000 nM,100 to 1000 nM
"CC(C)OC(=O)N[C@H]1CC[C@H](c2ncc(-c3ccc(NC(=O)OCc4ccccc4F)cc3S(=O)(=O)NC(C)(C)C)s2)CC1 [Ex. 70, trans-isopropyl N-[4-[5-[2-(tert-butylsulfamoyl)-4-[(2-fluorophenyl)methoxycarbonylamino]phenyl]thiazol-2-yl]cyclohexyl]carbamate]",> 1000 nM,≤ 100 nM
"CC(C)OC(=O)N[C@H]1CC[C@H](c2ncc(-c3ccc(NC(=O)O[C@@H](C)c4ccccc4)cc3S(=O)(=O)NC(C)(C)C)s2)CC1 [Ex. 71, trans-[(1S)-1-phenylethyl] N-[3-(tert-butylsulfamoyl)-4-[2-[4-(isopropoxycarbonylamino)cyclohexyl]thiazol-5-yl]phenyl]carbamate]",> 1000 nM,≤ 100 nM
"CC(C)OC(=O)N[C@H]1CC[C@H](c2ncc(-c3ccc(NC(=O)OCc4ccccn4)cc3S(=O)(=O)NC(C)(C)C)s2)CC1 [Ex. 72, trans-2-pyridylmethyl N-[3-(tert-butylsulfamoyl)-4-[2-[4-(isopropoxycarbonylamino)cyclohexyl]thiazol-5-yl]phenyl]carbamate]",> 1000 nM,≤ 100 nM
"CC(C)OC(=O)N[C@H]1CC[C@H](c2ncc(-c3ccc(NC(=O)NCc4ccc(O)cc4)cc3S(=O)(=O)NC(C)(C)C)s2)CC1 [Ex. 73, trans-isopropyl N-[4-[5-[2-(tert-butylsulfamoyl)-4-[(4-hydroxyphenyl)methylcarbamoylamino]phenyl]thiazol-2-yl]cyclohexyl]carbamate]",> 1000 nM,≤ 100 nM
